Measured values from article PMC8307317, “Point-Substitution of Phenylalanine Residues of 26RFa Neuropeptide: A Structure-Activity Relationship Study” (Molecules, 2021).
Non-standard residues stand in square brackets, D forms with d. Residues, ends and D or L forms follow the SMILES beside them. No end group written: not given here. ξ: configuration not given here. *: point of attachment. Phe(4-NO2) = N[C@@H](Cc1ccc([N+](=O)[O-])cc1)C(=O)O; Phe(4-tBu) = CC(C)(C)c1ccc(C[C@H](N)C(=O)O)cc1; X7 = O=C(C(c1ccc(C(F)(F)F)cc1)N1CCNCC1)*; 2Nal = N[C@@H](Cc1ccc2ccccc2c1)C(=O)O; X6 = O=C(C(c1ccc(F)cc1)N1CCNCC1)*; X8 = O=C(C(c1ccccc1F)N1CCNCC1)*; dTic = O=C(O)[C@H]1Cc2ccccc2CN1; 2Thi = N[C@@H](Cc1cccs1)C(=O)O; X1 = O=C(C(c1cccnc1)N1CCNCC1)*; ξPhg = NC(C(=O)O)c1ccccc1; Nphe = O=C(O)CNCc1ccccc1

Biological target: T1, human QRFPR (hQRFPR) (Homo sapiens, UniProt Q96P65)
T1 construct: expressed in transfected cells; host or cells: CHO cells, stably transfected with hQRFPR (G418 selection) and Gα16 (hygromycin B selection)
T1 sequence (Q96P65 1-431): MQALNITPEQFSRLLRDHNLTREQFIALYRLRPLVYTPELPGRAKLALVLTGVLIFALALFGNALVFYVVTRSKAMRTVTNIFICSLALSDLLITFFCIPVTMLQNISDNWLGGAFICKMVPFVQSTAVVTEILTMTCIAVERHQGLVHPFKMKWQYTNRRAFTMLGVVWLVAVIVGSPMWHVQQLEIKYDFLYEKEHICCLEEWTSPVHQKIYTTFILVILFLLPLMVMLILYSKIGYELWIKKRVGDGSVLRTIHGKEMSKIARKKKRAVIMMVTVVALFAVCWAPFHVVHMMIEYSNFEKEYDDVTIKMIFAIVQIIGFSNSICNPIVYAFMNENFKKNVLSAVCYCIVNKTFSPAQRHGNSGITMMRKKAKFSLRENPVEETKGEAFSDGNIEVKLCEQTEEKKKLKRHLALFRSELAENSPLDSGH
Assay: Calcium mobilization assay, agonist mode ([Ca2+]i in Gα16-hQRFPR-transfected CHO cells)
Format: cell-based
Conditions: [Ca2+]i mobilization in Gα16-hQRFPR-transfected CHO cells; mean of at least three independent experiments performed in triplicate; read-out: EC50
Protocol: Stably transfected hQRFPR CHO cells were obtained as previously described. The cells were maintained in F-12 nutrient mixture (Ham-F12) medium supplemented with 10% fetal bovine serum, 2 mM glutamine, and penicillin-streptomycin. Expression of Gα16 cells was maintained using selection antibiotic hygromycin B (200 µg/mL) and that of hQRFPR using geneticin G418 (500 µg/mL) (Life Technologies, Villebon-Sur-Yvette, France) in a humidified 5% CO2 atmosphere at 37 °C.
Changes in intracellular Ca^2+ concentrations induced by 26RFa(20–26) analogs in CHO-Gα16-hQRFPR-transfected cells were measured on a benchtop scanning fluorometer Flexstation III (Molecular Devices, Sunnyvale, CA, USA) as previously described. Briefly, 96-well assay black plates with clear bottoms (Corning international, Avon, France) were seeded at a density of 40,000 cells/well 24 h prior to assay. For profiling agonistic experiments, cells were loaded with 2 µM Fluo-4 acetoxymethyl ester (AM) (Invitrogen) for 1 h in the presence of 0.01% pluronic acid, washed thrice, and incubated for 30 min with standard HBSS containing 2.5 mM probenecid and 5 mM HEPES. Compounds to be tested were added at final concentrations ranging from 10^−11 to 10^−5 M in HBSS, and the fluorescence intensity was measured during 3 min. To evaluate the antagonistic potency of the test compounds, cells were incubated with each compound over 15 min after Fluo-4 AM loading. Then, during fluorescence recording, a pulse of 26RFa was administered at a final concentration of 10^−7 M. After subtraction of the mean fluorescence background, the baseline was normalized to 100%. Fluorescence peak values were determined for each concentration of compound.
Calcium experiments were performed in triplicate, and data, expressed as mean ± SEM of at least three distinct experiments, were analyzed with the Prism 8.0 software (Graphpad Software, San Diego, CA, USA). EC50 and the IC50 values were determined from concentration–response curves using a sigmoidal dose–response fit with variable slope from at least three independent determinations. Differences between 26RFa(20–26) and analog activities were analyzed by the Mann–Whitney test. p values < 0.05 were considered significant.

| Compound | EC50 [µM] |
| --- | --- |
| CC(C)(C)c1ccc(C[C@H](NC(=O)[C@H](CO)NC(=O)[C@H](Cc2ccccc2)NC(=O)CNC(=O)CN)C(=O)N[C@@H](CCCNC(=N)N)C(=O)N[C@@H](Cc2ccccc2)C(N)=O)cc1 [Compound 12, [ptBuPhe^24]26RFa(20–26)] (H-GGFS[Phe(4-tBu)]RF-NH2) | > 10 |
| N=C(N)NCCC[C@H](NC(=O)[C@H](Cc1ccccc1)NC(=O)[C@H](CO)NC(=O)C(c1ccc(F)cc1)N1CCNCC1)C(=O)N[C@@H](Cc1ccccc1)C(N)=O (some centres unmarked) [Compound 51, [Cmpi(4-FPhg)^22]26RFa(22–26)] (X6-SFRF-NH2) | 4.05 |
| N=C(N)NCCC[C@H](NC(=O)[C@H]1Cc2ccccc2CN1C(=O)[C@H](CO)NC(=O)[C@H](Cc1ccccc1)NC(=O)CNC(=O)CN)C(=O)N[C@@H](Cc1ccccc1)C(N)=O [Compound 41, [DTic^24]26RFa(20–26)] (H-GGFS[dTic]RF-NH2) | 6.2 |
| N=C(N)NCCC[C@H](NC(=O)C(NC(=O)[C@H](CO)NC(=O)[C@H](Cc1ccccc1)NC(=O)CNC(=O)CN)c1ccccc1)C(=O)N[C@@H](Cc1ccccc1)C(N)=O (some centres unmarked) [Compound 22, [Phg^24]26RFa(20–26)] (H-GGFS[ξPhg]RF-NH2) | > 10 |
| N=C(N)NCCC[C@H](NC(=O)[C@H](Cc1ccc([N+](=O)[O-])cc1)NC(=O)[C@H](CO)NC(=O)[C@H](Cc1ccccc1)NC(=O)CNC(=O)CN)C(=O)N[C@@H](Cc1ccccc1)C(N)=O [Compound 18, [pNO2Phe^24]26RFa(20–26)] (H-GGFS[Phe(4-NO2)]RF-NH2) | > 10 |
| N=C(N)NCCC[C@H](NC(=O)[C@H](Cc1ccccc1)NC(=O)[C@H](CO)NC(=O)[C@H](Cc1ccccc1)NC(=O)CNC(=O)CN)C(=O)NC(C(N)=O)c1ccccc1 (some centres unmarked) [Compound 23, [Phg^26]26RFa(20–26)] (H-GGFSFR[ξPhg]-NH2) | > 10 |
| N=C(N)NCCC[C@H](NC(=O)[C@H](Cc1ccccc1)NC(=O)[C@H](CO)NC(=O)[C@H](Cc1ccccc1)NC(=O)CNC(=O)CN)C(=O)N(CC(N)=O)Cc1ccccc1 [Compound 33, [NPhe^26]26RFa(20–26)] (H-GGFSFR[Nphe]-NH2) | > 10 |
| N=C(N)NCCC[C@H](NC(=O)[C@H](Cc1ccccc1)NC(=O)[C@H](CO)NC(=O)C(c1cccnc1)N1CCNCC1)C(=O)N[C@@H](Cc1ccccc1)C(N)=O (some centres unmarked) [Compound 64, [Cmpi(3-Pyg)^22]26RFa(22–26)] (X1-SFRF-NH2) | > 10 |
| GGFSWRF-NH2 [Compound 9, [Trp^24]26RFa(20–26)] | 2.04 |

Further lines, results first:

| EC50 [µM] | Compound |
| --- | --- |
| 3.16 | N=C(N)NCCC[C@H](NC(=O)[C@H](Cc1ccccc1)NC(=O)[C@H](CO)NC(=O)[C@H](Cc1cccs1)NC(=O)CNC(=O)CN)C(=O)N[C@@H](Cc1ccccc1)C(N)=O [Compound 2, [Thi^22]26RFa(20–26)] (H-GG[2Thi]SFRF-NH2) |
| > 10 | N=C(N)NCCC[C@H](NC(=O)[C@H](Cc1ccccc1)NC(=O)[C@H](CO)NC(=O)C(c1ccc(C(F)(F)F)cc1)N1CCNCC1)C(=O)N[C@@H](Cc1ccccc1)C(N)=O (some centres unmarked) [Compound 58, [Cmpi(4-TfmPhg)^22]26RFa(22–26)] (X7-SFRF-NH2) |
| 6.16 | N=C(N)NCCC[C@H](NC(=O)[C@H](Cc1ccccc1)NC(=O)[C@H](CO)NC(=O)[C@@H](Cc1c[nH]c2ccccc12)NC(=O)CNC(=O)CN)C(=O)N[C@@H](Cc1ccccc1)C(N)=O [Compound 37, [DTrp^22]26RFa(20–26)] (H-GG[dW]SFRF-NH2) |
| 1.15 | N=C(N)NCCC[C@H](NC(=O)[C@H](Cc1ccccc1)NC(=O)[C@H](CO)NC(=O)[C@H](Cc1ccc2ccccc2c1)NC(=O)CNC(=O)CN)C(=O)N[C@@H](Cc1ccccc1)C(N)=O [Compound 5, [2Nal^22]26RFa(20–26)] (H-GG[2Nal]SFRF-NH2) |
| 2.48 | N=C(N)NCCC[C@H](NC(=O)[C@H](Cc1ccccc1)NC(=O)[C@H](CO)NC(=O)C(c1ccccc1F)N1CCNCC1)C(=O)N[C@@H](Cc1ccccc1)C(N)=O (some centres unmarked) [Compound 55, [Cmpi(2-FPhg)^22]26RFa(22–26)] (X8-SFRF-NH2; N-terminus assumed) |
